For the assay, the target named is T1, SHP2 (Homo sapiens, UniProt Q06124).
T1 sequence (Q06124 1-593): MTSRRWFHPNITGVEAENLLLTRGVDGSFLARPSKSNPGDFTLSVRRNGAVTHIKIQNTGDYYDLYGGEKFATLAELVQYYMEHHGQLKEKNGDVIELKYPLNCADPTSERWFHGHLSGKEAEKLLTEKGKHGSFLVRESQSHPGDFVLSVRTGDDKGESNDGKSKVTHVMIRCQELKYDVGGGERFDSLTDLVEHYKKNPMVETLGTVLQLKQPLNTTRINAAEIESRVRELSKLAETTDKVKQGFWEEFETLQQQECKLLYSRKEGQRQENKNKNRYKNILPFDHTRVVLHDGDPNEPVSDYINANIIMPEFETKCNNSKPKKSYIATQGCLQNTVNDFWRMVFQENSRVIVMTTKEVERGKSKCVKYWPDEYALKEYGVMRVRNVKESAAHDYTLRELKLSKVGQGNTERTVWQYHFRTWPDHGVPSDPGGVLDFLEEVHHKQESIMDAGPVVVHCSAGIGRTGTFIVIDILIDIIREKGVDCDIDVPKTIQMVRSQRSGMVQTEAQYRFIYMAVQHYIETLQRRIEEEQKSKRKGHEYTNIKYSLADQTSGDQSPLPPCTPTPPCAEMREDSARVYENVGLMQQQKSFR
As to the kind of experiment: Phosphatase Assay (Single Dose Inhibition). The note with it: compound at 0.02 μM (20nM); DiFMUP substrate 12 μM; SHP2 0.5 nM activated with dPEG8 peptide; DMSO control set to 100%; triplicate. The class given is biochemical. How it is done: Phosphatase Assay (Single Dose Inhibition) Assay Protocol: For single dose inhibition assays using 6,8-difluoro-4-methylumbelliferyl phosphate (DiFMUP) as a substrate, SHP2 samples (diluted to 0.5 nM in reaction buffer) were incubated with dPEG8 peptide for 30 min in reaction buffer[60 mM 3,3-dimethyl glutarate (pH7.2), 75 mM NaCl, 75 mM KCl, and 1 mM EDTA, 0.05% Tween 20, 2mM dithiothreitol (DTT) ] to active the PTP. DMSO [0.5% (v/v)] or compounds (20nM) were added to the mixture and incubated for 30 min at room temperature. Reactions were initiated by the addition of DiFMUP (12 μM; total reaction volume of 100 μL), and the fluorescence (excitation at 340 nm, emission at 450 nm) of the resulting solutions was measured on a 2104-0020 EnVision Xcite Multilabel Reader (PerkinElmer) after 30min. The experiment is carried out in triplicate. The value for the control sample (DMSO) was set to 100%, and the values for the compound-treated samples were expressed as activity relative to the control sample.
As usually defined, the inhibition is the share of the control response that was lost under treatment. Low values mean a weak effect, high ones a strong effect. As to `Cc1nc(N2CCC3(CC2)Cc2ccccc2[C@H]3N)c(C(N)=O)nc1-c1cccc(Cl)c1Cl` [Example 4, (S)-3-(1-amino-1,3-dihydrospiro[indene-2,4′-piperidin]-1′-yl)-6-(2,3-dichlorophenyl)-5-methylpyrazine-2-carboxamide], testing at 0.02 µM gave an inhibition of 89%.

Take `Nc1nc(N2CCC3(CC2)Cc2ncccc2[C@H]3N)ccc1Sc1ccnc(N)c1Cl` [Example 32, (S)-1′-(6-amino-5-((2-amino-3-chloropyridin-4-yl)thio)pyridin-2-yl)-5,7-dihydrospiro[cyclopenta[b]pyridine-6,4′-piperidin]-5-amine]: the inhibition at 0.02 µM came to 75%.

For `Cc1nc(N2CCC3(CC2)Cc2ncccc2[C@H]3N)c(C(N)=O)nc1-c1cccc(Cl)c1Cl` [Example 27, (S)-3-(5-amino-5,7-dihydrospiro[cyclopenta[b]pyridine-6,4′-piperidin]-1′-yl)-6-(2,3-dichlorophenyl)-5-methylpyrazine-2-carboxamide], the inhibition at 0.02 µM is 79%.

For `NC(=O)c1nc(Sc2cccc(Cl)c2Cl)c(N)nc1N1CCC2(CC1)Cc1ncccc1[C@H]2N` [Example 31, (S)-5-amino-3-(5-amino-5,7-dihydrospiro[cyclopenta[b]pyridine-6,4′-piperidin]-1′-yl)-6-((2,3-dichlorophenyl)thio)pyrazine-2-carboxamide], the inhibition at 0.02 µM was 82%.

The values are drawn from patent US20210393623A1 (Jacobio Pharmaceuticals Co., Ltd., priority 2018, published 2021).
